EC50 data for 19 compounds are collected here from US10947252B2, “Inhibitors of KEAP1-Nrf2 protein-protein interaction” (Janssen Pharmaceutica NV, priority 2018, dated 2021).

The test relates to Glo-Response ARE-luc2P HEK293 cell line. Briefly: ARE luciferase reporter cell-based assay.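 Also: luciferase signal tracks Nrf2 activation of the ARE once compounds disrupt KEAP1-Nrf2 binding, read with One-Glo reagent, DMSO serving as low control.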 Particulars: Homo sapiens, HEK293, 24 h, average of results obtained. Background: Reporter assays use an easily measured gene product as a stand-in for the process of interest.

In general, EC50 refers to the concentration at which the effect is half-maximal. Low values mean higher potency in that assay, high ones lower potency in that assay.

Turning to `Cc1cnc2c(c1)S(=O)(=O)N(Cc1cc([C@H](CC(=O)O)c3ccn4c(C(F)F)nnc4c3C)ccc1C)C[C@H]1CCCCN21` (stereo in doubt) [Example 503, (*S)-3-(3-(Difluoromethyl)-8-methyl-[1,2,4]triazolo[4,3-a]pyridin-7-yl)-3-(4-methyl-3-(((*R)-3-methyl-5,5-dioxido-7,7a,8,9,10,11-hexahydro-6H-dipyrido[2,1-d:2′,3′-f][1,2,5]thiadiazepin-6-yl)methyl)phenyl)propanoic Acid], the EC50 came to 2.58 nM.
On to `CCn1nnc2c(C)c([C@@H](CC(=O)O)c3ccc(C)c(CN4C[C@H]5CCCN5c5ccccc5S4(=O)=O)c3)ccc21` (single isomer, unassigned) [Example 153, (*S)-3-(3-(((R)-5,5-Dioxido-7a,8,9,10-tetrahydrobenzo[f]pyrrolo[2,1-d][1,2,5]thiadiazepin-6(7H)-yl)methyl)-4-methylphenyl)-3-(1-ethyl-4-methyl-1H-benzo[d][1,2,3]triazol-5-yl)propanoic Acid], for which the EC50 is 3 nM.
In turn, `CC[C@@H]1CN(Cc2cc([C@H](CC(=O)O)c3ccn4c(C(F)F)nnc4c3C)ccc2C)S(=O)(=O)c2cccnc2O1` (relative stereo) [Example 464, (*S)-3-(3-(Difluoromethyl)-8-methyl-[1,2,4]triazolo[4,3-a]pyridin-7-yl)-3-(3-(((R)-4-ethyl-1,1-dioxido-3,4-dihydro-2H-pyrido[2,3-b][1,4,5]oxathiazepin-2-yl)methyl)-4-methylphenyl)propanoic Acid] registered an EC50 of 24.7 nM.
`CCn1nnc2c(C)c([C@H](CC(=O)O)c3ccc(C)c(CN4C[C@H]5COCCN5c5ncccc5S4(=O)=O)c3)ccc21` (single isomer, unassigned) [Example 137, (*R)-3-(3-(((*S)-5,5-Dioxido-7a,8,10,11-tetrahydro-[1,4]oxazino[3,4-d]pyrido[2,3-f][1,2,5]thiadiazepin-6(7H)-yl)methyl)-4-methylphenyl)-3-(1-ethyl-4-methyl-1H-benzo[d][1,2,3]triazol-5-yl)propanoic Acid] yielded an EC50 of 300 nM.
In turn, `Cc1ccc(C(c2ccn3c(C(F)(F)F)nnc3c2C)C(C)(C)C(=O)O)cc1CN1CC2(CC2)Oc2ncccc2S1(=O)=O` (stereo not shown) [Example 316, 3-(3-((1′,1′-Dioxidospiro[cyclopropane-1,4′-pyrido[2,3-b][1,4,5]oxathiazepin]-2′(3′H)-yl)methyl)-4-methylphenyl)-2,2-dimethyl-3-(8-methyl-3-(trifluoromethyl)-[1,2,4]triazolo[4,3-a]pyridin-7-yl)propanoic Acid] gave an EC50 of 1.3 nM.
`CCn1nnc2c(C)c(C(c3ccc(C)c(CN4CC5(CCOCC5)Oc5ncccc5S4(=O)=O)c3)C(C)(C)C(=O)O)ccc21` (stereo not shown) [Example 14, 3-(3-((1′,1′-Dioxido-2,3,5,6-tetrahydrospiro[pyran-4,4′-pyrido[2,3-b][1,4,5]oxathiazepin]-2′(3′H)-yl)methyl)-4-methylphenyl)-3-(1-ethyl-4-methyl-1H-benzo[d][1,2,3]triazol-5-yl)-2,2-dimethylpropanoic Acid] registered an EC50 of 0.7 nM.
In the case of `Cc1c([C@@H](CC(=O)O)c2ccc(Cl)c(CN3CC4(COC4)Oc4ccccc4S3(=O)=O)c2)ccn2c(C(F)(F)F)nnc12` (single isomer, unassigned) [Example 97, (*S)-3-(4-Chloro-3-((1′,1′-dioxoidospiro[benzo[b]]oxethiazepine-4,3′-oxetan]-2(3H)-yl)methyl)phenyl)-3-(8-methyl-3-(trifluoromethyl)-[1,2,4]triazolo[4,3-a]pyridine-7-yl)propanoic Acid] it was 5290 nM; in that of `Cc1ccc([C@H](CC(=O)O)c2ccn3c(C(F)(F)F)nnc3c2C)cc1CN1C[C@@H]2CCCCN2c2nc(C(N)=O)ccc2S1(=O)=O` (relative stereo) [Example 203, (*S)-3-(3-(((*S)-2-Carbamoyl-5,5-dioxido-7,7a,8,9,10,11-hexahydro-6H-dipyrido[2,1-d:2′,3′-f][1,2,5]thiadiazepin-6-yl)methyl)-4-methylphenyl)-3-(8-methyl-3-(trifluoromethyl)-[1,2,4]triazolo[4,3-a]pyridin-7-yl)propanoic Acid], 150 nM; in that of `Cc1ccc([C@H](CC(=O)O)c2ccn3c(C(F)(F)F)nnc3c2C)cc1CN1C[C@H]2CCCCN2c2ncc(C(F)(F)F)cc2S1(=O)=O` (relative stereo) [Example 199, (*S)-3-(3-(((*R)-5,5-Dioxido-3-(trifluoromethyl)-7,7a,8,9,10,11-hexahydro-6H-dipyrido[2,1-d:2′,3′-f][1,2,5]thiadiazepin-6-yl)methyl)-4-methylphenyl)-3-(8-methyl-3-(trifluoromethyl)-[1,2,4]triazolo[4,3-a]pyridin-7-yl)propanoic Acid], 3.3 nM.
`Cc1cnc2c(c1)S(=O)(=O)N(Cc1cc(C(c3ccn4c(C(F)(F)F)nnc4c3C)C(C)(C)C(=O)O)ccc1C)CC1(CC1)O2` (stereo not shown) [Example 313, 2,2-Dimethyl-3-(4-methyl-3-((8′-methyl-1′,1′-dioxidospiro[cyclopropane-1,4′-pyrido[2,3-b][1,4,5]oxathiazepin]-2′(3′H)-yl)methyl)phenyl)-3-(8-methyl-3-(trifluoromethyl)-[1,2,4]triazolo[4,3-a]pyridin-7-yl)propanoic Acid] returned an EC50 of 1.1 nM.
Under `Cc1cc2cc([C@@H](c3ccc(C)c(CN4CC5(CCOCC5)Oc5nc(OCCN6CCCC6)c(C)cc5S4(=O)=O)c3)C(C)(C)C(=O)O)n(C)c2nn1` (single isomer, unassigned) [Example 346, (*S)-3-(3,7-Dimethyl-7H-pyrrolo[2,3-c]pyridazin-6-yl)-2,2-dimethyl-3-(4-methyl-3-((8′-methyl-1′,1′-dioxido-7′-(2-(pyrrolidin-1-yl)ethoxy)-2,3,5,6-tetrahydrospiro[pyran-4,4′-pyrido[2,3-b][1,4,5]oxathiazepin]-2′(3′H)-yl)methyl)phenyl)propanoic Acid] stands 49.8 nM.
Consider `Cc1c([C@H](CC(=O)O)c2ccc(Cl)c(CN3CC4(COC4)Oc4ccccc4S3(=O)=O)c2)ccn2c(C(F)(F)F)nnc12` (single isomer, unassigned) [Example 96, (*R)-3-(4-Chloro-3-((1′,1′-dioxoidospiro[benzo[b]]oxethiazepine-4,3′-oxetan]-2(3H)-yl)methyl)phenyl)-3-(8-methyl-3-(trifluoromethyl)-[1,2,4]triazolo[4,3-a]pyridine-7-yl)propanoic Acid], for which a half-maximal effect (EC50) was put at 491 nM.
Compound `CCn1nnc2c(C)c([C@H](CC(=O)O)c3ccc(C)c(CN4C[C@@H]5CCCCN5c5ncccc5S4(=O)=O)c3)ccc21` (single isomer, unassigned) [Example 143, (*R)-3-(3-(((*S)-5,5-Dioxido-7,7a,8,9,10,11-hexahydro-6H-dipyrido[2,1-d:2′,3′-f][1,2,5]thiadiazepin-6-yl)methyl)-4-methylphenyl)-3-(1-ethyl-4-methyl-1H-benzo[d][1,2,3]triazol-5-yl)propanoic Acid] registered an EC50 of 45 nM.
Turning to `Cc1ccc([C@H](CC(=O)O)c2ccn3c(C(F)(F)F)nnc3c2C)cc1CN1C[C@H]2CCCCN2c2nc(C#N)ccc2S1(=O)=O` (relative stereo) [Example 204, (*S)-3-(3-(((*R)-2-Cyano-5,5-dioxido-7,7a,8,9,10,11-hexahydro-6H-dipyrido[2,1-d:2′,3′-f][1,2,5]thiadiazepin-6-yl)methyl)-4-methylphenyl)-3-(8-methyl-3-(trifluoromethyl)-[1,2,4]triazolo[4,3-a]pyridin-7-yl)propanoic Acid], the EC50 is 5.9 nM.
Compound `Cc1cc2cc([C@@H](c3ccc(C)c(CN4CC5(CCOCC5)Oc5nc(OCCN6CCCCC6)c(C)cc5S4(=O)=O)c3)C(C)(C)C(=O)O)n(C)c2nn1` (single isomer, unassigned) [Example 348, (*S)-3-(3,7-Dimethyl-7H-pyrrolo[2,3-c]pyridazine-6-yl)-2,2-dimethyl-3-(4-methyl-3-((8′-methyl-1′,1′-dioxido-7′-(2-(piperidine-1-yl)-ethoxy)2,3,5,6-tetrahydrospiro[pyran-4,4′-pyrido[2,3-b][1,4,5]oxathiazepin]-2′,(3′H)-yl)methyl)phenyl)propanoic Acid] had an EC50 of 19.2 nM.
In the case of `Cc1cnc2c(c1)S(=O)(=O)N(Cc1cc([C@@H](CC(=O)O)c3ccn4c(C(F)(F)F)nnc4c3C)ccc1Cl)CC1CCCCN21` (stereo in doubt) [Example 90, (*R)-3-(4-Chloro-3-(((*S)-3-methyl-5,5-dioxido-7,7a,8,9,10,11-hexahydro-6H-dipyrido[2,1-d:2′,3′-f][1,2,5]thiadiazepin-6-yl)methyl)phenyl)-3-(8-methyl-3-(trifluoromethyl)-[1,2,4]triazolo[4,3-a]pyridine-7-yl)propanoic Acid] it was 4.2 nM; in that of `Cc1cc2cc([C@H](c3ccc(C)c(CN4CC5(CC5)Oc5nc(OCCN6CCCCC6)c(C)cc5S4(=O)=O)c3)C(C)(C)C(=O)O)n(C)c2nn1` (single isomer, unassigned) [Example 351, (*R)-3-(3,7-Dimethyl-7H-pyrrolo[2,3-c]pyridazine-6-yl)-2,2-dimethyl-3-(4-methyl-3-((8′-methyl-1′,1′-dioxido-7′-(2-(piperidine-1-yl)-ethoxy)spiro[cyclopropane-1,4′-pyrido[2,3-b][1,4,5]oxathiazepin]-2′,(3′H)-yl)methyl)phenyl)propanoic Acid], 836 nM; in that of `Cc1ccc(C(c2ccn3c(C(F)(F)F)nnc3c2C)C(C)(C)C(=O)O)cc1CN1CC2(CCOCC2)Oc2nc(NCCCO)ccc2S1(=O)=O` (stereo not shown) [Example 114], 145 nM.
In the case of `Cc1ccc([C@H](CC(=O)O)c2ccn3c(C(F)F)nnc3c2C)cc1CN1CC2(CC2)Oc2ncc(Cl)cc2S1(=O)=O` (single isomer, unassigned) [Example 530, (*S)-3-(3-((8′-Chloro-1′,1′-dioxidospiro[cyclopropane-1,4′-pyrido[2,3-b][1,4,5]oxathiazepin]-2′(3′H)-yl)methyl)-4-methylphenyl)-3-(3-(difluoromethyl)-8-methyl-[1,2,4]triazolo[4,3-a]pyridin-7-yl)propanoic Acid] it was 10.2 nM.
